Measured values as given in patent US20180353512A1, “COMBINATION THERAPIES FOR TREATING B-CELL MALIGNANCIES” (GILEAD SCIENCES, INC., priority 2015, published 2018).
Where two headings read alike, the source gives them in different places.

Key:
[1] = system: OCI-LY10 cells; assay: Apoptosis assay, Annexin V flow cytometry; type: cell-based; conditions: 48 h, Idelalisib = 156 nM, Compound B = 8 nM, DMSO 29
Description: (§1) Apoptosis of Idelalisib in combination with Compound B in two DLBCL cell lines, OCI-Ly10 and TMD-8, was also measured. Cells plated at 0.2×10^6 cells/mL in RPMI 1640 supplemented with 20% […] and 1% penicillin and streptomycin. Cells were treated with compound, 156 nM Idelalisib, Compound B and the combination thereof. Control received DMSO at 0.2%. Cells were then incubated at 37 C for 48 hours. Apoptosis was measured using Annexin V/FITC kit, and analyzed by flow cytometry. Apoptosis was also measured using or Annexin V/7ADD kit (Beckman Coulter). Fluorescence was measured by flow cytometry using BD LSRII and the results were analyzed using FACSDiva.

[2] = system: TMD-8 cells; assay: Apoptosis assay, Annexin V flow cytometry; type: cell-based; conditions: 48 h, Idelalisib = 156 nM, Compound B = 8 nM, DMSO 21
Description: as §1

[3] = system: pERK T202/Y204; assay: Western Blot of TMD-8 Ibrutinib resistant lines; type: cell-based; conditions: idelalisib 420 nM, Compound B 320 nM
Description: Western Blot samples were prepared by lysing 10^6 cells for 30 minutes in 150 μL ice-cold lysis buffer. Protease Inhibitor Cocktail (Roche Diagnostics Corp), and phosphatase inhibitor sets 1 and 2 (EMD Millipore) were also added to the lysis buffer (Cell Signaling Technology). Cells were centrifuged at 12.5 g for 10 minutes at 4° C.; supernatant was collected and transferred to new tube. Sample buffer was added to each lysate, and then boiled at 99° C. for 5 minutes. Protein was loaded into an SDS-PAGE gel and run for 2 h at 125V. After electrophoresis, gel was transferred to Immobilon-F membrane using the X Cell Blot. The membrane was then blocked for 1 h at room temperature in blocking buffer and incubated overnight with primary antibodies diluted in a blocking buffer. The following day, the membranes were washed 3× (5 min each) with TBST; secondary antibodies were added and membrane was incubated for 45 minutes at room temperature, followed by 3×TBST (5 min each). Blots were read using Licor Imager. Primary antibodies included p-AKT (S473), p-BTK (Y223), BTK, p-ERK (T202/Y204), ERK, and actin (Cell Signaling Technologies), and secondary antibodies included IRDye-conjugated anti-mouse and anti-rabbit antibodies; LI-COR. Band intensity was measured using LI-COR imager and LI-COR Odyssey software.
Total protein expression levels and phosphorylation of PI3K, MAPK, BTK and NF-κB components were determined by Western Blot or Peggy Sue. Cells were treated with idelalisib (420 nM), Compound B (320 nM) or in combination. Protein expression level and phosphoproteomics were determined using Western Blot (p-ERK 1/2, p-AKT S473, total AKT) and Peggy Sue (p-BTK, p-IκBα S32, total IκBα), using procedures as described in Example 3B. Results were quantitated after determining the AUC for each group and normalized to DMSO vehicle control.

[4] = system: TMD8^S (DMSO passage matched, idelalisib-sensitive line); assay: CellTiter-Glo viability assay at 96 h; type: cell-based; conditions: for cell growth: FIG. 23A
Description: Growth inhibition to Idelalisib or other inhibitors was assessed using CellTiter-Glo viability assay at 96 h. […] Cell lines were analyzed by whole exome sequencing, RNASeq, and phosphoproteomics. Protein expression was measured using Simple Western and SDS/PAGE and western blot. Caspase 3/7 was measured using Caspase-Glo 3/7 assay; apoptosis was measured with Annexin V assay and propidium iodide by flow cytometry.
Cell viability EC50 was determined using a sigmoidal dose-response (variable slope) curve generated from quadruplicate samples. Statistical significance was determined using the student's t-test for cell viability and two-tailed paired t-test for apoptosis experiments in Prism (GraphPad).
Idelalisib-resistant (TMD8^R) cell line and passage-matched Idelalisib-sensitive (TMD8^S) cell line were generated according to the procedure described in Example 5 above. To characterize the resistant cells, cell viability assays, RNASeq of multidrug resistance (MDR) family of ABC transporter genes (N=33), apoptosis assays, and phosphoprotein analysis were performed. Cell viability was measured using CellTiter-Glo, as described in Example 1A above. Western blot and protein level analysis were performed after treatment with 420 nM idelalisib, 320 nM Compound B and combination thereof, using Peggy Sue (ProteinSimple) automated Western Blot system. Protein concentration (pg/μL) was quantitated using recombinant protein standards. Normalized AUC were determined for each of the treatment groups, normalized to actin. Apoptosis was assessed by propidium iodide and Annexin V/FITC staining and measured by flow cytometry, as described in Example 1A above. Western Blot with anti-p-AKT (S473) antibody and Peggy Sue were used to determine the phosphorylation state of downstream signaling components.

[5] = system: TMD-8 cells with the BTK (C481F) mutation; assay: 96-hour Cell Titer Glo viability assay, Ibrutinib-resistant TMD-8; set-up: Emax: dose or concentration left out as unconfirmed; conditions: for sensitivity in cell viability assay: TMD8^BTK-C481F, 96 h
[6] = A20-Q143* line, normalized to DMSO control, DMSO 0.91
[7] = control line, normalized to DMSO vehicle control

| Compound | % Annexin V+ [1] | % Annexin V+ [2] | pERK T202/Y204 [3, 6] | pERK T202/Y204 [3, 7] | EC50 ([4]; Example 7, read-out: EC50, cell viability) | cell growth [4] | inhibition at 1 µM ([4]; at 1 μM, read-out: Growth inhibition) | Emax ([5]; Homo sapiens, TMD8, read-out: Emax, growth inhibition) | sensitivity in cell viability assay [5] | EC50 ([4]; unit inferred, read-out: EC50, cell viability) |
| --- | --- | --- | --- | --- | --- | --- | --- | --- | --- | --- |
| CCC(Nc1ncnc2[nH]cnc12)c1nc2cccc(F)c2c(=O)n1-c1ccccc1 (stereo not shown) [Idelalisib, 2-(1-((9H-Purin-6-yl)amino)propyl)-5-fluoro-3-phenylquinazolin-4(3H)-one] | 25% | 45% | 0.73 | 0.13 | 0.22 µM | inhibited cell growth | 92% | 14% | resistant |  |
| CC#CC(=O)N1CC[C@@H](n2c(=O)n(-c3ccc(Oc4ccccc4)cc3)c3c(N)ncnc32)C1 [Compound B, 6-amino-9-[(3R)-1-(2-butynoyl)-3-pyrrolidinyl]-7-(4-phenoxyphenyl)-7,9-dihydro-8H-purin-8-one] | 26% | 44% | 0.76 | 0.35 |  | inhibited cell growth |  |  | resistant | 0.0012 µM |
